Source: ChEMBL document CHEMBL5226375, “Synthesis and Comprehensive in Vivo Activity Profiling of Olean-12-en-28-ol, 3β-Pentacosanoate in Experimental Autoimmune Encephalomyelitis: A Natural Remyelinating and Anti-Inflammatory Agent” (J Nat Prod, 2023)
Calls of active or inactive are those of the source. The rule behind the calls is not given here.

Assays:
Mus musculus [1] = assay: Anti-inflammatory activity against MOG35-55-induced experimental autoimmune encephalomyelitis C57BL/6 mouse model assessed as fold change in MMP9 gene expression in brain at 300 mg/kg/day, ig for 14 days starting from 12th day of immunization by RT-qPCR analysis relative to control; format: functional; details: time 14 day
Mus musculus [2] = assay: Anti-inflammatory activity against MOG35-55-induced experimental autoimmune encephalomyelitis C57BL/6 mouse model assessed as fold change in CXCL10 gene expression in brain at 600 mg/kg/day, ig for 14 days starting from 12th day of immunization by RT-qPCR analysis relative to control; format: functional; details: time 14 day
Mus musculus [3] = assay: Anti-inflammatory activity against MOG35-55-induced experimental autoimmune encephalomyelitis C57BL/6 mouse model assessed as reduction in TNF-alpha protein expression in brain at 300 to 600 mg/kg/day, ig for 14 days starting from 12th day of immunization by western blot analysis; format: functional, organism-based; details: dose 300-600 mg/kg/day, time 14.0 day
Mus musculus [4] = assay: (§1) Anti-inflammatory activity against MOG35-55-induced experimental autoimmune encephalomyelitis C57BL/6 mouse model assessed as reduction in serum Th1 cytokine level by measuring reduction in IFNG level at 600 mg/kg/day, ig for 14 days starting from 12th day of immunization by ELISA; format: functional, organism-based; details: time 14.0 day
Mus musculus [5] = assay: Anti-inflammatory activity against MOG35-55-induced experimental autoimmune encephalomyelitis C57BL/6 mouse model assessed as fold change in APP gene expression in brain at 600 mg/kg/day, ig for 14 days starting from 12th day of immunization by RT-qPCR analysis relative to control; format: functional; details: time 14 day
Mus musculus [6] = assay: Anti-inflammatory activity against MOG35-55-induced experimental autoimmune encephalomyelitis C57BL/6 mouse model assessed as fold change in CD4 gene expression in brain at 300 mg/kg/day, ig for 14 days starting from 12th day of immunization by RT-qPCR analysis relative to control; format: functional; details: time 14 day
Mus musculus [7] = assay: as §1, with “EAE symptoms” for “serum Th1 cytokine level”, “cumulative scores” for “IFNG level”, “and measured from day 12 to 38 post-immunization” for “by ELISA”; format: functional, organism-based; details: time 1-26 day
Mus musculus [8] = assay: Anti-inflammatory activity against MOG35-55-induced experimental autoimmune encephalomyelitis C57BL/6 mouse model assessed as fold change in BCL2 gene expression in brain at 300 mg/kg/day, ig for 14 days starting from 12th day of immunization by RT-qPCR analysis relative to control; format: functional; details: time 14 day
Mus musculus [9] = assay: Anti-inflammatory activity against MOG35-55-induced experimental autoimmune encephalomyelitis C57BL/6 mouse model assessed as increase in brain IL-4 level at 600 mg/kg/day, ig for 14 days starting from 12th day of immunization by ELISA; format: functional, organism-based; details: time 14.0 day
Mus musculus [10] = assay: Anti-inflammatory activity against MOG35-55-induced experimental autoimmune encephalomyelitis C57BL/6 mouse model assessed as methylation of CpG sites of IL18 gene promoter in brain at 600 mg/kg, ig for 14 days starting from 12th day of immunization by PCR analysis (reference value: 29.2 +/-8%); format: functional; details: time 14 day
Mus musculus [11] = assay: Anti-inflammatory activity against MOG35-55-induced experimental autoimmune encephalomyelitis C57BL/6 mouse model assessed as methylation of CpG sites of SOCS5 gene promoter in brain at 600 mg/kg, ig for 14 days starting from 12th day of immunization by PCR analysis (reference value: 10.6 +/-4%); format: functional; details: time 14 day
Mus musculus [12] = assay: Anti-inflammatory activity against MOG35-55-induced experimental autoimmune encephalomyelitis C57BL/6 mouse model assessed as methylation of CpG sites of TGFB1 gene promoter in brain at 600 mg/kg, ig for 14 days starting from 12th day of immunization by PCR analysis (reference value: 18.3 +/-4%); format: functional; details: time 14 day
Mus musculus [13] = assay: Anti-inflammatory activity against MOG35-55-induced experimental autoimmune encephalomyelitis C57BL/6 mouse model assessed as reduction in APP protein expression in brain at 300 to 600 mg/kg/day, ig for 14 days starting from 12th day of immunization by western blot analysis relative to control; format: functional; details: dose 300-600 mg/kg/day, time 14 day
Mus musculus [14] = assay: Anti-inflammatory activity against MOG35-55-induced experimental autoimmune encephalomyelitis C57BL/6 mouse model assessed as methylation of CpG sites of IL11 gene promoter in brain at 600 mg/kg, ig for 14 days starting from 12th day of immunization by PCR analysis (reference value: 61.1 +/-4%); format: functional; details: time 14 day
Mus musculus [15] = assay: Anti-inflammatory activity against MOG35-55-induced experimental autoimmune encephalomyelitis C57BL/6 mouse model assessed as fold change in C1S gene expression in brain at 0.3 mg/kg/day, ig for 14 days starting from 12th day of immunization by RT-qPCR analysis relative to control; format: functional; details: time 14 day
Mus musculus [16] = assay: Anti-inflammatory activity against MOG35-55-induced experimental autoimmune encephalomyelitis C57BL/6 mouse model assessed as fold change in APP gene expression in brain at 0.3 mg/kg/day, ig for 14 days starting from 12th day of immunization by RT-qPCR analysis relative to control; format: functional; details: time 14 day
Mus musculus [17] = assay: Anti-inflammatory activity against MOG35-55-induced experimental autoimmune encephalomyelitis C57BL/6 mouse model assessed as fold change in CXCL10 gene expression in brain at 0.15 mg/kg/day, ig for 14 days starting from 12th day of immunization by RT-qPCR analysis relative to control; format: functional; details: time 14 day
Mus musculus [18] = assay: Anti-inflammatory activity against MOG35-55-induced experimental autoimmune encephalomyelitis C57BL/6 mouse model assessed as reduction in serum Th1 cytokine level by measuring reduction in TNF-alpha level at 0.3 mg/kg/day, ig for 14 days starting from 12th day of immunization by ELISA; format: functional, organism-based; details: time 14.0 day
Mus musculus [19] = assay: Anti-inflammatory activity against MOG35-55-induced experimental autoimmune encephalomyelitis C57BL/6 mouse model assessed as fold change in YWHAH gene expression in brain at 0.3 mg/kg/day, ig for 14 days starting from 12th day of immunization by RT-qPCR analysis relative to control; format: functional; details: time 14 day
Mus musculus [20] = assay: Anti-inflammatory activity against MOG35-55-induced experimental autoimmune encephalomyelitis C57BL/6 mouse model assessed as upregulation of MBP protein expression in brain at 0.15 to 0.3 mg/kg/day, ig for 14 days starting from 12th day of immunization by western blot analysis; format: functional, organism-based; details: dose 0.15-0.3 mg/kg/day, time 14.0 day
Mus musculus [21] = assay: Anti-inflammatory activity against MOG35-55-induced experimental autoimmune encephalomyelitis C57BL/6 mouse model assessed as fold change in IL6 gene expression in brain at 0.15 mg/kg/day, ig for 14 days starting from 12th day of immunization by RT-qPCR analysis relative to control; format: functional; details: time 14 day
Mus musculus [22] = assay: Anti-inflammatory activity against MOG35-55-induced experimental autoimmune encephalomyelitis C57BL/6 mouse model assessed as fold change in NFKB gene expression in brain at 0.15 mg/kg/day, ig for 14 days starting from 12th day of immunization by RT-qPCR analysis relative to control; format: functional; details: time 14 day
Mus musculus [23] = assay: Anti-inflammatory activity against MOG35-55-induced experimental autoimmune encephalomyelitis C57BL/6 mouse model assessed as reduction in serum chemokines level by measuring reduction in […] level at 0.3 mg/kg/day, ig for 14 days starting from 12th day of immunization by ELISA; format: functional, organism-based; details: time 14.0 day

CCCCCCCCCCCCCCCCCCCCCCCCC(=O)O[C@H]1CC[C@]2(C)[C@H]3CC=C4[C@@H]5CC(C)(C)CC[C@]5(CO)CC[C@@]4(C)[C@]3(C)CC[C@H]2C1(C)C
fold change (FC) (Mus musculus [1]): 1.42
fold change (FC) (Mus musculus [2]): 1.93
Activity (Mus musculus [3]): Active
Activity (Mus musculus [4]): Active
fold change (FC) (Mus musculus [5]): 1.28
fold change (FC) (Mus musculus [6]): 2.55
Activity (Mus musculus [7]): Active
fold change (FC) (Mus musculus [8]): 1.76
Activity (Mus musculus [9]): Active
Activity (Mus musculus [10]): 40.5%
Activity (Mus musculus [11]): 9.3%
Activity (Mus musculus [12]): 39.8%
fold change (FC) (Mus musculus [13]): 2
Activity (Mus musculus [14]): 41.4%

CCCCCCCCc1ccc(CCC(N)(CO)CO)cc1 [FINGOLIMOD]
fold change (FC) (Mus musculus [15]): 2.12
fold change (FC) (Mus musculus [16]): 1.72
fold change (FC) (Mus musculus [17]): 5.21
Activity (Mus musculus [18]): Active
fold change (FC) (Mus musculus [19]): -1.26
Activity (Mus musculus [20]): inactive
fold change (FC) (Mus musculus [21]): 4.34
fold change (FC) (Mus musculus [22]): 2.04
Activity (Mus musculus [23]): Active
